# EP0562849A2, “Steroid derivatives” (priority 1992, dated 1993)
# Values joined by “and” are separate entries in the source; they are usually repeats but may differ in a detail not shown here. Equal values may be shown once.
# Tests used:
# [1] = tested on: human LDL receptor promoter; test: in vitro Luciferase Activity Test (LDL receptor promoter-luciferase reporter in recombinant CHO cells); format: cell-based; conditions: maximum activity (%) over control, 15% luciferase activity cutoff point (footnote 2)
# Procedure, shortened: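 Stably transfected CHO clone S27/B30 carries the 1546 bp human LDL receptor promoter driving firefly luciferase; an SV40 promoter-luciferase CHO line serves as nonspecific-transcription control. Assay medium is DMEM/Ham's F-12 (3:1) with 20 mM HEPES, 0.5% bovine albumin and 0.5 µg/ml 25-hydroxycholesterol.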
# [2] = tested on: Syrian Golden hamsters; test: In vivo serum cholesterol lowering in hamsters fed a cholesterol test diet; conditions: hamsters
# Procedure: Syrian Golden hamsters were fed a cholesterol test diet made of 10% coconut oil and 0.12% cholesterol (by weight) in Purina 5001 Rodent Chow to induce hypercholesteriolemia.
# After two weeks on the cholesterol test diet the hamsters were bled from the orbital sinium under light CO2 anesthesia. Serum was prepared and analyzed for cholesterol using a commercial test kit (Cholesterol High Performance, Single Vial™, product of Boehringer Mannheim Corp., Indianapolis, IN, USA). The hamsters were separated into groups of six animals, such that each group had approximately the same mean serum cholesterol levels. Selected compounds of the invention were incorporated into the Cholesterol Test Diet at 0.2% (w/w) and fed to the hamsters for one week. A control group of hamsters continued on the Cholesterol Test Diet during the same one-week period. The dose of test compounds of the invention was equivalent to 100 mg/kg/day based on the weight of the hamsters and their diet consumption. Upon completion of the test period, the animals were bled and serum cholesterol determined as above.
# Mean serum cholesterol values from the test hamsters were compared to values from the control group and tested for significance at the Z.05 level using Dunnett's test.
# [3] = tested on: African green monkeys; test: Monkey pilot study of plasma cholesterol levels on a hypercholesterolemic diet; format: in vivo; conditions: for Plasma Cholesterol Levels, individual animals: animals 1-6; for Plasma Cholesterol Levels, Mean: mean of six animals
# Procedure: To study the effect in short term lowering of plasma cholesterol concentrations in African green monkeys.
# Six African green monkeys were given a hypercholesterolemic diet containing 16.4% lard and 0.33% cholesterol for two weeks to establish a baseline cholesterol level. Thereafter, two daily doses of [14a,5a]-4-(2-propenyl)cholestan-3a-ol, the compound of Example 5, were administered in their feed at 25 mg/kg/day total daily dosage. After ten days the drug dose was increased to 50 mg/kg/day for an additional 3 weeks, followed by a washout period when no drug was administered and the hypercholesterolemic diet was maintained. Blood samples were drawn on the days indicated and plasma was prepared foranalysis. Cholesterol was determined by standard enzymatic techniques(method of Allain et aI., using diagnostics high performance Cholesterol Reagent No. 236691, product of Boehringer Mannheim Co., Indianapolis, Indiana USA).
smiles,measurement,setting,value
"C=CC[C@@H]1[C@H](O)CC[C@@]2(C)[C@H]1CC[C@@H]1[C@@H]2CC[C@]2(C)[C@@H]([C@H](C)CCCC(C)C)CC[C@@H]12 [Example 5, [4a,5a]-4-(2-propenyl)cholestan-3a-ol]",Emax,"[1]; Homo sapiens, CHO, read-out: MA%",121%
same,MA%,[1],120% and 135%
same,inhibition in vivo at 100 mg/kg/day,"[2]; Mesocricetus auratus, feed or water, 168 h, 0.2% (w/w) in diet for one week (100 mg/kg/day), negative values = serum cholesterol increased relative to control, read-out: Percent Lowering of Cholesterol from Control Value Mean",49.2%
same,Serum Cholesterol Mean,"[2]; 0.2% (w/w) in Cholesterol Test Diet for one week, equivalent to 100 mg/kg/day, groups of six, control mean 337, listed as (2)",171 mg/dL
same,"Plasma Cholesterol Levels, individual animals","[3]; Day 4, dose 50 mg/kg/day in feed, 50 mg/kg/day",184 and 878 and 155 and 159 and 148 and 211
same,"Plasma Cholesterol Levels, Mean","[3]; Day 4, dose 50 mg/kg/day",205
same,"Plasma Cholesterol Levels, individual animals","[3]; Day 5, dose 25 mg/kg/day in feed, 25 mg/kg/day",268 and 411 and 175 and 182 and 189 and 252
same,"Plasma Cholesterol Levels, Mean","[3]; Day 5, dose 25 mg/kg/day, Day 0 mean 252",244
same,"Plasma Cholesterol Levels, individual animals","[3]; Day 7 Washout (no drug, diet maintained)",209 and 251 and 165 and 192 and 174 and 200
same,"Plasma Cholesterol Levels, Mean",[3]; Day 7 Washout,199
same,"Plasma Cholesterol Levels, individual animals","[3]; Day 8, dose 25 mg/kg/day in feed, 25 mg/kg/day",208 and 386 and 172 and 184 and 174 and 249
same,"Plasma Cholesterol Levels, Mean","[3]; Day 8, dose 25 mg/kg/day",226
same,"Plasma Cholesterol Levels, Mean",[3]; Day 12 (50 mg/kg/day per method),190
same,"Plasma Cholesterol Levels, individual animals","[3]; Day 12 (dose not given; 50 mg/kg/day per method), 50 mg/kg/day",172 and 276 and 159 and 169 and 157 and 206
same,"Plasma Cholesterol Levels, individual animals","[3]; Day 14 Washout (no drug, diet maintained)",226 and 311 and 176 and 159 and 173 and 213
same,"Plasma Cholesterol Levels, Mean",[3]; Day 14 Washout,210
same,"Plasma Cholesterol Levels, Mean",[3]; Day 20 (50 mg/kg/day per method),192
same,"Plasma Cholesterol Levels, individual animals","[3]; Day 20 (dose not given; 50 mg/kg/day per method), 50 mg/kg/day",188 and 314 and 143 and 161 and 142 and 206
same,"Plasma Cholesterol Levels, individual animals","[3]; Day 21 Washout (no drug, diet maintained)",270 and 344 and 193 and 168 and 216 and 246
same,"Plasma Cholesterol Levels, Mean",[3]; Day 21 Washout,240
same,lowering plasma cholesterol levels,"[3]; conclusion of the pilot study, 25 then 50 mg/kg/day in feed",effective in lowering plasma cholesterol levels
